# Values quoted from earlier work, collected in patent US8586590B2, “Compounds” (GlaxoSmithKline Intellectual Property Development Limited, priority 2009, dated 2013).
# What was measured:
# neutrophils = settings: treatment of neutrophils; Thelen et al. 1994
Compound,neutrophil migration (neutrophil),superoxide release (neutrophil),inhibitory activity on phospholipases (phospholipases),fMLP-induced respiratory burst response (neutrophils)
O=c1cc(N2CCOCC2)oc2c(-c3ccccc3)cccc12 [LY294002],block,block,some inhibitory activity,
COC[C@H]1OC(=O)c2coc3c2[C@@]1(C)C1=C(C3=O)[C@@H]2CCC(=O)[C@@]2(C)C[C@H]1OC(C)=O [wortmannin],block,block,,prevents the fMLP-induced respiratory burst response
